Reference: the NIST ThermoML archive (doi:10.1021/acs.jced.5b01104)
± gives the expanded uncertainty stated by the source.

Settings: Liquid, Chromatography

## O [water]
412.6 K
  vapor or sublimation pressure: 356 ± 28 kPa
443.2 K
  vapor or sublimation pressure: 792 ± 62 kPa
483.2 K
  vapor or sublimation pressure: 1902 ± 150 kPa
